These results are taken from patent publication US9969743B2, “Urea and amide derivatives of aminoalkylpiperazines and use thereof” (Southern Research Institute, priority 2012, dated 2018).

Experiment [1] deals with human D2 dopamine receptors (HEK cells) (Homo sapiens (Human), UniProt P14416). Description: Whole cell adenylyl cyclase assay, D2. The class given is cell-based. To be noted: inhibition of forskolin (100 μM) stimulated cAMP, normalized to quinpirole; conc >10× Ki, per compound in Conc (nM); mean ± S.E.M. The method, then: Functional Activity. Whole cell adenylyl cyclase assay. The intrinsic activity of the compounds was evaluated by determining their ability to inhibit forskolin-dependent (100 μM) stimulation of adenylyl cyclase activity using a whole cell assay. A whole cell-cyclic AMP accumulation assay was performed with stably transfected HEK cells expressing human D2 or D3 dopamine receptors. This assay is an adaptation of an earlier published method (Su et al., Cyclic Nucleotide Res. 1976, 2, 257-285). Details regarding this method have been published (Chu, W. et al. Bioorg. Med. Chem. 2005, 13, 77-87; Taylor, M. et al. Synapse 2010, 64, 251-266). Confluent (60-80%) HEK cells transfected with recombinant D2-like dopamine receptors were grown in DMEM/10% fetal calf serum containing geneticin in […]. The endogenous ATP pool is radioactively labeled by preincubating the cells in serum-free DMEM/25 mM Hepes medium containing 2 μCi/mL of [2,8-^3H]-adenine (20-Ci/mmol) in a 5% CO2 incubator at 37° C. for 75 min. The radioactive medium was removed by aspiration. Serum-free DMEM (5.6 mL) containing 25 mM HEPES, pH 7.4, and 0.1 mM of the phosphodiesterase inhibitor isobutylmethylxanthine was added to the flask. A 400-μL aliquot of cells was removed and added to 50 μL of forskolin (100 μM) and 50 μL of test drug or quinpirole in DMEM-HEPES. The cells were incubated for 20 min at 37° C. (vortexing every 5 min). The reaction was terminated by the addition of 0.5 mL of 10% trichloroacetic acid (w/v) containing 1.0 mM unlabeled cyclic AMP as a recovery standard. Both the [^3H]-cyclic AMP and the [^3H]-ATP fractions were collected following separation using columns of Dowex AG-50W-X4 and alumina. The final yield of [^3H]-cyclic AMP is corrected for column recovery of unlabeled cyclic AMP determined spectrophotometrically (OD259). The results are reported as percent conversion of [^3H]-ATP into [^3H]-cyclic AMP. The values for the percent inhibition are reported as the actual percent of inhibition of the ^3H-cAMP accumulation relative to the assay performed in the absence of a test compound, minus basal activity. […] The percent maximum response is the value for the inhibition normalized to the value for the full agonist quinpirole.

Experiment [2] deals with human D2-long dopamine receptor (Homo sapiens (Human), UniProt P14416). Description: Radioligand binding (125I-IABN competition), D2-long dopamine receptor. To be noted: membranes of stably transfected HEK cells, 37° C. 60 min, Cheng and Prusoff. The method, then: (§1) Binding Affinity. The affinities of the target compounds were determined using radioligand binding experiments.
(§2) Competition curves were modeled for a single site. Data from competition dose-response curves were analyzed using Tablecurve program (Jandel). IC50 values were converted to equilibrium dissociation constants (Ki values) using the Cheng and Prusoff correction.

Experiment [3] addresses human D3 dopamine receptor (Homo sapiens (Human), UniProt P35462). Description: Radioligand binding (125I-IABN competition), D3 dopamine receptor. To be noted: for Ki: 125I-IABN competition, membranes of stably transfected HEK cells, 37° C. 60 min, Cheng and Prusoff; for D2/D3 (D3 selectivity ratio, D2 Ki/D3 Ki): calculated from binding Ki values. The method, then:
as §1, §2

Chain of human D3 dopamine receptor (P35462 whole entry): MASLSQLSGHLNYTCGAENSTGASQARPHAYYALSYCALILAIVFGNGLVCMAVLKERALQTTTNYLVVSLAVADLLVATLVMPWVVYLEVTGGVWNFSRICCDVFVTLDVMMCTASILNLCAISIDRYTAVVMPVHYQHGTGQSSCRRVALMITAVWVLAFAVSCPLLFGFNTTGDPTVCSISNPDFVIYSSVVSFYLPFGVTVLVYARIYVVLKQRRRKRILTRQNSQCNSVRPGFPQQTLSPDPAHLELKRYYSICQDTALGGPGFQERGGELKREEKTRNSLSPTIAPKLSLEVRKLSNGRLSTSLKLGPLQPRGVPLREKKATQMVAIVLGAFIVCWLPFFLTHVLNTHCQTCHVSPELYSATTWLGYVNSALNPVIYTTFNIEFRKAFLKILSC
Chain of human D2-long dopamine receptor (P14416 whole entry): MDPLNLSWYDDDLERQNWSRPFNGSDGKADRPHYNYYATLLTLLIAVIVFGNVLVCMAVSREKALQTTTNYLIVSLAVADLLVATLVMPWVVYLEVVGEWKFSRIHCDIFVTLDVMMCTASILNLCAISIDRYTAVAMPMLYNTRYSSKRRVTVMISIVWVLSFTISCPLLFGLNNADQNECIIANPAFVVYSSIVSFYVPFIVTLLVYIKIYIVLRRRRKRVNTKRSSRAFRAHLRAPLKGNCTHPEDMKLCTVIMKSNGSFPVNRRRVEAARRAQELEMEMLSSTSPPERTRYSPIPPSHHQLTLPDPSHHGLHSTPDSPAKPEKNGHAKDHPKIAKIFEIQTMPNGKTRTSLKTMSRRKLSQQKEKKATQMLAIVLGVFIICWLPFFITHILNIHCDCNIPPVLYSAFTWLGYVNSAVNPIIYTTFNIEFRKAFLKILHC
Chain of human D2 dopamine receptors (HEK cells) (P14416 whole entry): as above

For `CC(C)(C)c1nc(N2CCN(CCCCNC(=O)N3CCN(c4ccccc4)CC3)CC2)c2ccccc2n1` [Compound 13, N-(4-(4-(2-(tert-Butyl)quinazolin-4-yl)piperazin-1-yl)butyl)-4-phenylpiperazine-1-carboxamide], the “D2 Cyclase % Inhibition Normalized” value in experiment [1] is “Insoluble”.

On to `CC(C)(C)c1nc(C2CC2)cc(N2CCN(CCCCNC(=O)N3CCc4c([nH]c5ccccc45)C3)CC2)n1` [Compound 101, N-(4-(4-(2-(tert-Butyl)-6-cyclopropylpyrimidin-4-yl)piperazin-1-yl)butyl)-1,3,4,9-tetrahydro-2H-pyrido[3,4-b]indole-2-carboxamide], for which the Ki was found to be 789 ± 45.7 nM in experiment [2] and 57.1 ± 3.5 nM in experiment [3]. `CC(C)(C)c1cc(N2CCN(CCCCNC(=O)N3CCc4c([nH]c5ccccc45)C3)CC2)nc(C(C)(C)C)n1` [Compound 56, N-(4-(4-(2,6-Di-tert-butylpyrimidin-4-yl)piperazin-1yl)butyl)-1,3,4,9-tetrahydro-2H-pyrido[3,4-b]indole-2-carboxamide]: the Ki in experiment [2] turned out to be 308 ± 29.9 nM. In addition, in experiment [3], the affinity, expressed as Ki, was 9.5 ± 1.7 nM and the “D2/D3 (D3 selectivity ratio, D2 Ki/D3 Ki)” value is given as 33.

Consider `CC(C)(C)c1nc(N2CCN(CCCCNC(=O)c3cn4nc(Cl)ccc4n3)CC2)cc(C(F)(F)F)n1` [Compound 116, N-(4-(4-(2-(tert-Butyl)-6-(trifluoromethyl)pyrimidin-4-yl)piperazin-1-yl)butyl)-6-chloroimidazo[1,2-b]pyridazine-2-carboxamide], for which the “D2 Cyclase % Inhibition Normalized” value in experiment [1] is listed as “Insoluble”. On to `CC(C)(C)c1nc(N2CCN(CCCCNC(=O)N3CCC(c4ccccc4)CC3)CC2)cc(C(F)(F)F)n1` [Compound 48, N-(4-(4-(2-(tert-Butyl)-6-(trifluoromethyl)pyrimidin-4-yl)piperazin-1-yl)butyl)-4-phenylpiperidine-1-carboxamide], for which the “D2 Cyclase % Inhibition Normalized” value in experiment [1] was “Insoluble”. As for `CC(C)(C)c1cc(N2CCN(CCCCNC(=O)N3CCc4c([nH]c5ccccc45)C3)CC2)cc(C(C)(C)C)c1` [Compound 97, N-(4-(4-(3,5-Di-tert-butylphenyl)piperazin-1-yl)butyl)-1,3,4,9-tetrahydro-2H-pyrido[3,4-b]indole-2-carboxamide], the results for the Ki in experiment [2] and in experiment [3] were 2440 ± 175 nM and 245 ± 46.4 nM, respectively. Also, the “D2/D3 (D3 selectivity ratio, D2 Ki/D3 Ki)” value in experiment [3] was 10. Regarding `CC(C)(C)c1nc(N2CCN(CCCCNC(=O)c3cn4ccncc4n3)CC2)cc(C(F)(F)F)n1` [Compound 115, N-(4-(4-(2-(tert-Butyl)-6-(trifluoromethyl)pyrimidin-4-yl)piperazin-1-yl)butyl)imidazo[1,2-a]pyrazine-2-carboxamide], in experiment [1], the “D2 Cyclase % Inhibition Normalized” value is listed as “Insoluble”.

Usually Ki stands for the dissociation constant of the complex between target and ligand, obtained from inhibition or displacement.
